The nature of data set [1]: Toxicology, once daily intravenous administration to Wistar rats. The following applies: rat, in vivo, dose levels of upto 15 mg/kg/day, read-out: no observed effect dose. The method, then:
The compound of Example 1 has been administered intravenously to groups of six male and six female Wistar rats once daily at dose levels of upto 15 mg/kg/day. The no observed effect dose was 2.5 mg/kg/day.

The next data set addresses T1, Rat Liver DHFR (Rattus norvegicus, UniProt Q920D2).
T1 sequence (Q920D2 1-187): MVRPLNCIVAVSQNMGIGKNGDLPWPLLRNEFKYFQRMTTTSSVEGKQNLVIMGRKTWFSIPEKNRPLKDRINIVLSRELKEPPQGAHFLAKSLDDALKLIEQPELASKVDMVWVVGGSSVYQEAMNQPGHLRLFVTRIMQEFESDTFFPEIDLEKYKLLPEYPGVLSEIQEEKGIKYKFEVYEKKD
The experiment in a line: biochemical. The settings on record: DHFR enzyme activity, P95 limits in parentheses. The method, then:
(§1) Compounds of Formula (I) were tested for their effect on veratrine-evoked release of glutamate from rat brain slices according to the protocol described in Epilepsia 27(5): 490-497, 1986. The protocol for testing for inhibition of DHFR activity was a modification of that set out in Biochemical Pharmacology Vol. 20 pp 561-574, 1971.

The subject of data set [2] is veratrine-evoked release of glutamate from rat brain slices. The data set can be described thus: tissue or blood. Type of data set: cell-based. The following applies: P95 limits in parentheses. On the procedure: as §1
The nature of another data set: Toxicology in rats. The following applies: rat, in vivo, read-out: no observed effect dose. The method, then: (§2) The compound of Example 2, has been tested in both rats and dogs. In rats the no observed effect dose was 2.5 mg/kg/day and in dogs, the no observed effect dose was 14 mg/kg/day.
Data set [3] can be described thus: Duration of action / clearance from the central nervous system (statement). The following applies: statement in words.
The next data set is described as follows: in vivo. Details: species or system dogs. The following applies: dog. The method, then:
as §2

Data set [4] has as its system release of the excitatory amino acid aspartate. The settings on record: statement in words; Leach et al Epilepsia 27, 490-497 1986; Miller et al 1987; cited from earlier work.
Data set [5] deals with release of the excitatory amino acid glutamate. The settings on record: statement in words; Leach et al Epilepsia 27, 490-497 1986; Miller et al 1987; cited from earlier work.

The term IC50 denotes the concentration that gives 50% inhibition. Take `CN1CCN(c2nc(N)c(-c3cc(Cl)cc(Cl)c3Cl)c(C(F)(F)F)n2)CC1` [Example 1, 4-Amino-2-(4-methylpiperazin-1-yl)-5-(2,3,5-trichlorophenyl)-6-trifluoromethylpyrimidine]: the NOAEL in data set [1] was determined as 2.5 mg/kg/day. Further, the figures for the IC50 (on Rat Liver DHFR; in data set [2]) were > 100 µM and 1.18 µM, respectively.
Consider `COCc1nc(N)nc(N)c1-c1cc(Cl)cc(Cl)c1Cl` [Example 2, 2,4-Diamino-5-(2,3,5-trichlorophenyl)-6-methoxymethylpyrimidine], for which the IC50 came to 33 µM at Rat Liver DHFR and 0.56 µM in data set [2]. For the same compound, the results for the NOAEL in “Toxicology in rats” and in the data set “in vivo” were 2.5 mg/kg/day and 14 mg/kg/day, respectively. Besides, the “clearance from the central nervous system” value in data set [3] was “cleared from the central nervous system rapidly”.
With `Nc1nc(N)c(-c2cc(Cl)cc(Cl)c2Cl)c(C(F)(F)F)n1` [Example 4, 2,4-Diamino-5-(2,3,5-trichlorophenyl)-6-trifluoromethylpyrimidine], the IC50 is > 100 µM on Rat Liver DHFR and 0.33 µM in data set [2].
With `Nc1ncc(-c2cc(Cl)c([N+](=O)[O-])c(Cl)c2Cl)c(N)n1` [Example 5, 2,4-Diamino-5-(4-nitro-2,3,5-trichlorophenyl)pyrimidine], the IC50 on Rat Liver DHFR was ~100 µM; in data set [2], 3.5 µM.
In the case of `Cc1nc(N)nc(N)c1-c1cc(Cl)cc(Cl)c1Cl` [Example 6, 2,4-Diamino-5-(2,3,5-trichlorophenyl)-6-methylpyrimidine], the IC50 at Rat Liver DHFR stood at 0.51 µM; in data set [2] it was 0.7 µM.
For the compound `Nc1nc(N2CCOCC2)nc(C(F)(F)F)c1-c1cc(Cl)cc(Cl)c1Cl` [Example 7, 4-Amino-2-N-morpholino-5-(2,3,5-trichlorophenyl)-6-trifluoromethylpyrimidine], the figures for the IC50 (at Rat Liver DHFR; in data set [2]) were > 10 µM and < 10 µM, respectively.
On to `CN(C)c1nc(N)c(-c2cc(Cl)cc(Cl)c2Cl)c(C(F)(F)F)n1` [Example 8, 4-Amino-2-N,N-dimethylamino-5-(2,3,5-trichlorophenyl)-6-trifluoromethylpyrimidine], for which the figures for the IC50 (at Rat Liver DHFR; in data set [2]) were > 10 µM and < 10 µM, respectively.
In the same order, the values of `Nc1nc(N2CCOCC2)ncc1-c1cc(Cl)cc(Cl)c1Cl` [Example 9, 4-Amino-2-N-morpholino-5-(2,3,5-trichlorophenyl)-pyrimidine] are > 100 µM and < 10 µM.
As to `CN(C)c1ncc(-c2cc(Cl)cc(Cl)c2Cl)c(N)n1` [Example 10, 4-Amino-2-N,N-dimethylamino-5-(2,3,5-trichlorophenyl)pyrimidine], the results for the IC50 (on Rat Liver DHFR; in data set [2]) were > 100 µM and < 10 µM, respectively.
Take `Cc1nc(N2CCN(C)CC2)nc(N)c1-c1cc(Cl)cc(Cl)c1Cl` [Example 11, 4-Amino-6-methyl-2-(4-methylpiperazin-1-yl)-5-(2,3,5-trichlorophenyl)pyrimidine]: the IC50 at Rat Liver DHFR is > 100 µM; in data set [2] it was 4.8 µM.
Regarding `Cc1nc(N)nc(N)c1-c1cc(Cl)c([N+](=O)[O-])c(Cl)c1Cl` [Example 12, 2,4-diamino-6-methyl-5-(2,3,5-trichloro-4-nitrophenyl) pyrimidine], the IC50 at Rat Liver DHFR was > 100 µM; in data set [2], < 10 µM.
For `Cc1nc(N(C)C)nc(N)c1-c1cc(Cl)cc(Cl)c1Cl` [Example 13, 4-Amino-2-(N,N-dimethylamino)-6-methyl-5-(2,3,5-trichlorophenyl)pyrimidine] the same measures were > 100 µM and < 10 µM.
Turning to `Nc1nc(N)c(-c2cccc(Cl)c2Cl)c(C(F)(F)F)n1` [Example 14, 2,4-Diamino-5-(2,3-dichlorophenyl)-6-trifluoromethylpyrimidine], the IC50 is > 100 µM at Rat Liver DHFR and 3.1 µM in data set [2].
In the case of `Cc1nc(N)nc(N)c1-c1cccc(Cl)c1Cl` [Example 15, 2,4-Diamino-5-(2,3-dichlorophenyl)-6-methylpyrimidine], the IC50 on Rat Liver DHFR was determined as 8.7 µM; in data set [2], 2.7 µM.
In the same order, the values of `COCc1nc(N)nc(N)c1-c1cccc(Cl)c1Cl` [Example 16, 2,4-Diamino-5-(2,3-dichlorophenyl)-6-methoxymethylpyrimidine] are > 100 µM and 3.2 µM.
As to `Nc1ncc(-c2cccc3ccccc23)c(N)n1` [Example 17, 2,4-Diamino-5-(1-naphthyl)pyrimidine], the IC50 at Rat Liver DHFR is 4.9 µM; in data set [2], 2.4 µM.
As to `Nc1nc(N)c(-c2cccc(Cl)c2Cl)c(CF)n1` [Example 18, 2,4-Diamino-5-(2,3-dichlorophenyl)-6-fluoromethylpyrimidine], the IC50 is ~100 µM at Rat Liver DHFR and < 10 µM in data set [2].
As to `Nc1nc(N)c(-c2cccc(Cl)c2Cl)c(COc2ccccc2)n1` [Example 19, 2,4-Diamino-5-(2,3-dichlorophenyl)-6-phenoxymethylpyrimidine], the IC50 at Rat Liver DHFR was > 100 µM; in data set [2], 2.6 µM.
Regarding `CSCc1nc(N)nc(N)c1-c1cccc(Cl)c1Cl` [Example 20, 2,4-Diamino-5-(2,3-dichlorophenyl)-6-methylthiomethylpyrimidine], the results for the IC50 (on Rat Liver DHFR; in data set [2]) were 17.5 µM and 4.2 µM, respectively.
On to `Nc1ncc(-c2cccc(Cl)c2Cl)c(N)n1` [Example 21, 2,4-Diamino-5-(2,3-dichlorophenyl)pyrimidine], for which the IC50 came out at 16 µM on Rat Liver DHFR and 11.5 µM in data set [2].
With `Cc1nc(N)nc(N)c1-c1ccccc1Cl` [Example 22, 2,4-Diamino-5-(2-chlorophenyl)-6-methyl-pyrimidine], the figures for the IC50 (at Rat Liver DHFR; in data set [2]) were 23.8 µM and 2.8 µM, respectively.
For the compound `Nc1ncc(-c2ccccc2Cl)c(N)n1` [Example 23, 2,4-Diamino-5-(2-chlorophenyl)pyrimidine], the results for the IC50 (at Rat Liver DHFR; in data set [2]) were 20.9 µM and 8.7 µM, respectively.
For the compound `CCc1nc(N)nc(N)c1-c1ccccc1Cl` [Example 24, 2,4-Diamino-5-(2-chlorophenyl)-6-ethylpyrimidine], the IC50 on Rat Liver DHFR was 15.1 µM; in data set [2], 2.1 µM.
For the compound `Nc1nc(N)c(-c2ccc(Cl)cc2Cl)c(C(F)(F)F)n1` [Example 25, 2,4-Diamino-5-(2,4-dichlorophenyl)-6-trifluoromethylpyrimidine], the figures for the IC50 (on Rat Liver DHFR; in data set [2]) were > 100 µM and 4.1 µM, respectively.
For `Nc1nc(N)c(-c2ccc(Cl)cc2Cl)c(COCc2ccccc2)n1` [Example 26, 6-Benzyloxymethyl-2,4-diamino-5-(2,4-dichlorophenyl)pyrimidine] the same measures were ~10 µM and ~3 µM.
Consider `CN1CCN(c2ncc(-c3ccc(Cl)cc3Cl)c(N)n2)CC1` [Example 27, 2-(4-methylpiperazin-1-yl)-4-amino-5-(2,4-dichlorophenyl)pyrimidine], for which the IC50 was > 100 µM at Rat Liver DHFR and ~10 µM in data set [2].
Take `Nc1nc(N)c(-c2cc(Cl)ccc2Cl)c(C(F)(F)F)n1` [Example 28, 2,4-Diamino-5-(2,5-dichlorophenyl)-6-trifluoromethylpyrimidine]: the IC50 amounted to 46.1 µM at Rat Liver DHFR and 4.6 µM in data set [2].
For `Nc1ncc(-c2cc(Cl)cc(Cl)c2Cl)c(N)n1` [Example 29, 2,4-Diamino-5-(2,3,5-trichlorophenyl)pyrimidine] the same measures were 0.53 µM and 1.57 µM.
With `Nc1nnc(-c2cccc(Cl)c2Cl)c(N)n1` [lamotrigine, 3,5-diamino-6-(2,3-dichlorophenyl)-1,2,4-triazine], the “inhibition of the release of aspartate” value in data set [4] is “shown to inhibit the release”. In addition, the “inhibition of the release of glutamate” value in data set [5] is listed as “shown to inhibit the release”.
